Test results from PMC5433425 (PeerJ, 2017).
Where “and” joins values, the source holds several entries; their conditions need not be identical. Identical values can stand only once. Like-named read-outs stand apart in the source and are kept apart here. Peptide text beside a SMILES is read from it. * marks the point of attachment. βNA = c1ccc2cc(N*)ccc2c1

Assays:
[1] = tested on: E. coli AG100A; conditions: EtBr […] + inhibitor 20 µM
[2] = tested on: E. coli AG100tet; assay: microbe, parasite or virus in culture; type: cell-based, Escherichia coli; conditions: for MIC: Escherichia coli, AG100TET
Procedure: (§1) The assays were performed in triplicate and the MIC value was given as result of at least two concordant values.

[3] = tested on: E. coli AG100tet; assay: EtBr accumulation by real-time fluorometry; conditions: EtBr 2 µg/ml + inhibitor 80 µM
[4] = tested on: E. coli AG100; assay: EtBr accumulation by real-time fluorometry; conditions: EtBr 1 µg/ml + inhibitor 80 µM
[5] = tested on: E. coli AG100; assay: Checkerboard synergy assay (MIC of antibiotics/EtBr with efflux inhibitor); type: cell-based, Escherichia coli; conditions: Escherichia coli
Procedure: as §1

[6] = tested on: E. coli AG100; assay: Membrane permeability assay (Live/Dead BacLight)
[7] = tested on: E. coli AG100; assay: Membrane potential assay (BacLight, DiOC2(3)); conditions: 80 µM
[8] = 80 uM, raw well reading, listed as PAN

NC(N)=NCCC[C@H](NC(=O)[C@@H](N)Cc1ccccc1)C(=O)Nc1ccc2ccccc2c1 [PAβN] (H-Phe-Arg-βNA)
EtBr fluorescence ([1]; cycle 1): 2.806 | EtBr fluorescence ([1]; cycle 2): 3.199 | EtBr fluorescence ([1]; cycle 3): 3.493 | EtBr fluorescence ([1]; cycle 4): 3.706 | EtBr fluorescence ([1]; cycle 5): 3.997 | EtBr fluorescence ([1]; cycle 6): 4.263 | EtBr fluorescence ([1]; cycle 7): 4.462 | EtBr fluorescence ([1]; cycle 8): 4.698 | EtBr fluorescence ([1]; cycle 9): 5.01 | EtBr fluorescence ([1]; cycle 10): 5.162 | EtBr fluorescence ([1]; cycle 11): 5.32 | EtBr fluorescence ([1]; cycle 12): 5.607 | EtBr fluorescence ([1]; cycle 13): 5.848 | EtBr fluorescence ([1]; cycle 14): 6.013 | EtBr fluorescence ([1]; cycle 15): 6.228 | EtBr fluorescence ([1]; cycle 16): 6.479 | EtBr fluorescence ([1]; cycle 17): 6.607 | EtBr fluorescence ([1]; cycle 18): 6.927 | EtBr fluorescence ([1]; cycle 19): 6.923 | EtBr fluorescence ([1]; cycle 20): 7.2698 | EtBr fluorescence ([1]; cycle 21): 7.508 | EtBr fluorescence ([1]; cycle 22): 7.627 | EtBr fluorescence ([1]; cycle 23): 7.913 | EtBr fluorescence ([1]; cycle 24): 7.996 | EtBr fluorescence ([1]; cycle 25): 8.302 | EtBr fluorescence ([1]; cycle 26): 8.33 | EtBr fluorescence ([1]; cycle 27): 8.55 | EtBr fluorescence ([1]; cycle 28): 8.862 | EtBr fluorescence ([1]; cycle 29): 8.894 | EtBr fluorescence ([1]; cycle 30): 9.1148 | decrease in EtBr MIC ([2]; AG100tet (AcrAB-overexpressing strain)): 128 fold | MIC ([2]; read-out: MIC of EtBr in presence of the efflux inhibitor, AG100tet, inhibitor 40 μM): 256 µg/mL | MIC ([2]; read-out: MIC of EtBr in presence of the efflux inhibitor, AG100tet, inhibitor 80 μM): 128 µg/mL | MIC ([2]; read-out: MIC of EtBr in presence of the efflux inhibitor, AG100tet, inhibitor 160 μM): 4 µg/mL | MIC ([2]; read-out: MIC of OFX in presence of the efflux inhibitor, AG100tet, inhibitor 40 μM): 0.06 µg/mL | MIC ([2]; read-out: MIC of OFX in presence of the efflux inhibitor, AG100tet, inhibitor 80 μM): 0.03 µg/mL | MIC ([2]; read-out: MIC of OFX in presence of the efflux inhibitor, AG100tet, inhibitor 160 μM): 0.03 µg/mL | MIC ([2]; read-out: MIC of OXA in presence of the efflux inhibitor, AG100tet, inhibitor 40 μM): 256 µg/mL | MIC ([2]; read-out: MIC of OXA in presence of the efflux inhibitor, AG100tet, inhibitor 80 μM): 256 µg/mL | MIC ([2]; read-out: MIC of OXA in presence of the efflux inhibitor, AG100tet, inhibitor 160 μM): 64 µg/mL | MIC ([2]; read-out: MIC of TET in presence of the efflux inhibitor, AG100tet, inhibitor 40 μM): 8 µg/mL | MIC ([2]; read-out: MIC of TET in presence of the efflux inhibitor, AG100tet, inhibitor 80 μM): 4 µg/mL | MIC ([2]; read-out: MIC of TET in presence of the efflux inhibitor, AG100tet, inhibitor 160 μM): 2 µg/mL | EtBr fluorescence ([3]; cycle 1): 11.1278 | EtBr fluorescence ([3]; cycle 2): 12.695 | EtBr fluorescence ([3]; cycle 3): 14.0098 | EtBr fluorescence ([3]; cycle 4): 14.9916 | EtBr fluorescence ([3]; cycle 5): 15.9316 | EtBr fluorescence ([3]; cycle 6): 16.6928 | EtBr fluorescence ([3]; cycle 7): 17.1135 | EtBr fluorescence ([3]; cycle 8): 17.7313 | EtBr fluorescence ([3]; cycle 9): 18.0085 | EtBr fluorescence ([3]; cycle 10): 18.4427 | EtBr fluorescence ([3]; cycle 11): 18.7463 | EtBr fluorescence ([3]; cycle 12): 18.8264 | EtBr fluorescence ([3]; cycle 13): 19.2404 | EtBr fluorescence ([3]; cycle 14): 19.2594 | EtBr fluorescence ([3]; cycle 15): 19.2787 | EtBr fluorescence ([3]; cycle 16): 19.7369 | EtBr fluorescence ([3]; cycle 17): 19.738 | EtBr fluorescence ([3]; cycle 18): 20.2008 | EtBr fluorescence ([3]; cycle 19): 19.7958 | EtBr fluorescence ([3]; cycle 20): 20.1672 | EtBr fluorescence ([3]; cycle 21): 20.6387 | EtBr fluorescence ([3]; cycle 22): 20.6639 | EtBr fluorescence ([3]; cycle 23): 21.3214 | EtBr fluorescence ([3]; cycle 24): 21.3175 | EtBr fluorescence ([3]; cycle 25): 21.5239 | EtBr fluorescence ([3]; cycle 26): 21.9663 | EtBr fluorescence ([3]; cycle 27): 22.3215 | EtBr fluorescence ([3]; cycle 28): 22.6925 | EtBr fluorescence ([3]; cycle 29): 23.1641 | EtBr fluorescence ([3]; cycle 30): 23.4062 | EtBr fluorescence ([4]; cycle 1): 5.077 | EtBr fluorescence ([4]; cycle 2): 5.498 | EtBr fluorescence ([4]; cycle 3): 5.692 | EtBr fluorescence ([4]; cycle 4): 6.095 | EtBr fluorescence ([4]; cycle 5): 6.2405 | EtBr fluorescence ([4]; cycle 6): 6.476 | EtBr fluorescence ([4]; cycle 7): 6.738 | EtBr fluorescence ([4]; cycle 8): 6.948 | EtBr fluorescence ([4]; cycle 9): 7.121 | EtBr fluorescence ([4]; cycle 10): 7.401 | EtBr fluorescence ([4]; cycle 11): 7.525 | EtBr fluorescence ([4]; cycle 12): 7.725 | EtBr fluorescence ([4]; cycle 13): 8.024 | EtBr fluorescence ([4]; cycle 14): 8.041 | EtBr fluorescence ([4]; cycle 15): 8.277 | EtBr fluorescence ([4]; cycle 16): 8.537 | EtBr fluorescence ([4]; cycle 17): 8.7426 | EtBr fluorescence ([4]; cycle 18): 8.8367 | EtBr fluorescence ([4]; cycle 19): 8.945 | EtBr fluorescence ([4]; cycle 20): 9.137 | EtBr fluorescence ([4]; cycle 21): 9.31 | EtBr fluorescence ([4]; cycle 22): 9.534 | EtBr fluorescence ([4]; cycle 23): 9.8 | EtBr fluorescence ([4]; cycle 24): 9.927 | EtBr fluorescence ([4]; cycle 25): 10.0486 | EtBr fluorescence ([4]; cycle 26): 10.1364 | EtBr fluorescence ([4]; cycle 27): 10.3331 | EtBr fluorescence ([4]; cycle 28): 10.5844 | EtBr fluorescence ([4]; cycle 29): 10.7732 | EtBr fluorescence ([4]; cycle 30): 11.0863 | MIC ([5]; AG100, AG100, inhibitor 40 μM, read-out: MIC of OXA in presence of the efflux inhibitor): 64 µg/mL | MIC ([5]; AG100, AG100, inhibitor 80 μM, read-out: MIC of OXA in presence of the efflux inhibitor): 64 µg/mL | MIC ([5]; AG100, AG100, inhibitor 160 μM, read-out: MIC of OXA in presence of the efflux inhibitor): 64 µg/mL | MIC ([5]; AG100, read-out: MIC of EtBr in presence of the efflux inhibitor, AG100, inhibitor 40 μM): 100 µg/mL | MIC ([5]; AG100, read-out: MIC of EtBr in presence of the efflux inhibitor, AG100, inhibitor 80 μM): 100 µg/mL | MIC ([5]; AG100, read-out: MIC of EtBr in presence of the efflux inhibitor, AG100, inhibitor 160 μM): 100 µg/mL | MIC ([5]; AG100, read-out: MIC of OFX in presence of the efflux inhibitor, AG100, inhibitor 40 μM): 0.06 µg/mL | MIC ([5]; AG100, read-out: MIC of OFX in presence of the efflux inhibitor, AG100, inhibitor 80 μM): 0.06 µg/mL | MIC ([5]; AG100, read-out: MIC of OFX in presence of the efflux inhibitor, AG100, inhibitor 160 μM): 0.06 µg/mL | MIC ([5]; AG100, read-out: MIC of TET in presence of the efflux inhibitor, AG100, inhibitor 40 μM): 2 µg/mL | MIC ([5]; AG100, read-out: MIC of TET in presence of the efflux inhibitor, AG100, inhibitor 80 μM): 1 µg/mL | MIC ([5]; AG100, read-out: MIC of TET in presence of the efflux inhibitor, AG100, inhibitor 160 μM): 0.06 µg/mL | BacLight Live/Dead fluorescence 485/20,528/20 [6, 8]: 168 and 192 | BacLight Live/Dead fluorescence 485/20,590/35 [6, 8]: 43 and 57 | membrane permeability increase / membrane permeation ([6]; AG100, 80 µM): 14% | membrane depolarization [7]: 14%
